Measurements: patent US7173026B2, “Pyrrolo [2,1-c][1,4]benzodiazepine-anthraquinone conjugates useful as antitumour agents” (Council of Scientific and Industrial Research, priority 2004, dated 2007)

Columns and labels:
Assay type in all cases: cell-based
Details in all cases: 48 hours
[1] = system: SiHa; test: In vitro cytotoxicity against human cancer cell lines (sulforhodamine B), SiHa
Experimental: (§1) In vitro cytotoxicity against human cancer cell lines: The human cancer cell lines procured from National Cancer Institute, Frederick, U.S.A or National Center for Cell Science; Pune, India. were used in present study. Cells were grown in tissue culture flasks in complete growth medium (RPMI-1640 medium with 2 mM glutamine, 100 μg/ml streptomycin, pH 7.4, sterilized by filtration and supplemented with 10% fetal calf serum and 100 units/ml penicillin before use) at 37° C. in an atmosphere of 5% CO2 and 90% relative humidity in a carbon dioxide incubator. The cells at subconfluent stage were harvested from the flask by treatment with trypsin (0.5% in PBS containing 0.02% EDTA) for determination of cytotoxicity. Cells with viability of more than 98% as determined by trypan blue exclusion were used for assay. Cell suspension of the required cell density were prepared in complete growth medium with gentamycin (50 μg/ml) for determination of cytotoxicity.
(§2) Stock solutions of (2×10–2 M of test material were prepared in DMSO (Dimethyl sulphoxide). The stock solutions were serially diluted with complete growth medium containing 50 μg/ml of gentamycin to obtain working test solutions of required concentrations.
(§3) In vitro cytotoxicity against human cancer cell lines was determined (Monks, A , Scudiero, D., Skehan, P., Shoemaker R., Paull, K., Vistica, D., Hose, C., Langley, j., Cronise, P., Vaigro-Wolff, A., Gray-Goodrich, M., Campbell, H., Mayo, J and Boyd m.J. Natl. Cancer Inst., 1991, 83, 757–766) using 96-well tissue culture plates. 100 μl of cell suspension was added to each well of the 96-well tissue culture plate. The cells were incubated for 24 hours. Test materials in complete growth medium (100 μl) were added after 24 hours incubation to the wells containing cell suspension. The plates were further incubated for 48 hours (at 37° C. in an atmosphere of […] 90% relative humidity in a carbon dioxide incubator) after addition of test material and then the cell growth was stopped by gently layering trichloroacetic acid (TCA, 50 μl, 50%) on top of the medium in all the wells. The plates were incubated at 4° C. for one hour to fix the cells attached to the bottom of the wells. The liquid of all the wells was gently pipetted out and discarded. The plates were washed five times with distilled water to remove TCA, growth medium low molecular weight metabolites, serum proteins etc and air-dried. Cell growth was measured by staining with sulforhodamine B dye (Skehan et al., 1990). The adsorbed dye was dissolved in Tris-Buffer (100 m l, 0.01M, pH 10.4) and plates were gently stirred for 5 minutes on a mechanical stirrer. The optical density was recorded on ELISA reader at 540 nm.
(§4) The cell growth was calculated by subtracting mean OD value of respective blank from the mean OD value of experimental set. Percent growth in presence of test material was calculated considering the growth in absence of any test material as 100% and in turn percent growth inhibition in presence of test material will be calculated.

[2] = system: HT-29; test: In vitro cytotoxicity against human cancer cell lines (sulforhodamine B), HT-29
Experimental: as §1, §2, §3, §4

[3] = system: HOP-62; test: In vitro cytotoxicity against human cancer cell lines (sulforhodamine B), HOP-62
Experimental: as §1, §2
as §3, with “The plates were washed five times with distilled water to remove TCA, growth medium low molecular weight metabolites, serum proteins etc and air-dried.” left out, “The adsorbed dye was dissolved in Tris-Buffer (100 m l, 0.01M, pH 10.4) and plates were gently stirred for 5 minutes on a mechanical stirrer.” left out
as §4

[4] = system: A-549; test: In vitro cytotoxicity against human cancer cell lines (sulforhodamine B), A-549
Experimental: as §1, §2, §3, §4

[5] = system: HCT-15; test: In vitro cytotoxicity against human cancer cell lines (sulforhodamine B), HCT-15
Experimental: as §1, §2
as §3, with “The plates were washed five times with distilled water to remove TCA, growth medium low molecular weight metabolites, serum proteins etc and air-dried.” left out, “The adsorbed dye was dissolved in Tris-Buffer (100 m l, 0.01M, pH 10.4) and plates were gently stirred for 5 minutes on a mechanical stirrer.” left out
as §4

[6] = HT-29, concentration 10-4 mol/L
[7] = HT-29, concentration 10-5 mol/L
[8] = HT-29, concentration 10-6 mol/L
[9] = HOP-62, concentration 10-5 mol/L
[10] = HOP-62, concentration 10-6 mol/L
[11] = A-549, concentration 10-4 mol/L
[12] = A-549, concentration 10-5 mol/L
[13] = A-549, concentration 10-6 mol/L
[14] = HCT-15, concentration 10-5 mol/L
[15] = HCT-15, concentration 10-6 mol/L

Row | Compound | percentage growth inhibition ([1]; concentration 10-4 mol/L) | percentage growth inhibition ([1]; concentration 10-5 mol/L) | percentage growth inhibition ([1]; concentration 10-6 mol/L) | percentage growth inhibition [2, 6] | percentage growth inhibition [2, 7] | percentage growth inhibition [2, 8] | percentage growth inhibition [3, 9] | percentage growth inhibition [3, 10] | percentage growth inhibition [4, 11] | percentage growth inhibition [4, 12] | percentage growth inhibition [4, 13] | percentage growth inhibition [5, 14] | percentage growth inhibition [5, 15]
1 | COc1cc2c(cc1OCCCC(=O)Nc1cccc3c1C(=O)c1ccccc1C3=O)N=C[C@@H]1CCCN1C2=O [compound Va, 7-Methoxy-8-[N-(9,10-dihydro-9,10-dioxo-1-anthracenyl)-propane-3-carboxamide]-oxy-(11aS)-1,2,3,11a tetrahydro-5H-pyrrolo[2,1-c][1,4]benzodiazepin-5-one] | 57% | 52% | 41% | 93% | 86% | 68% | 90% | 74% | 93% | 27% | 47% | 66% | 59%
2 | COc1cc2c(cc1OCCCCC(=O)Nc1cccc3c1C(=O)c1ccccc1C3=O)N=C[C@@H]1CCCN1C2=O [compound Vc, 7-Methoxy-8-[N-(9,10-dihydro-9,10-dioxo-1-anthracenyl)-butane-4-carboxamide]-oxy-(11aS)-1,2,3,11a tetrahydro-5H-pyrrolo [2,1-c][1,4]benzodiazepin-5-one] | 73% | 49% | 40% | 93% | 87% | 73% | 97% | 73% | 93% | 10% | 56% | 82% | 61%
